# According to PubChem BioAssay AID2060490 (Molecular Pharmacology Branch, DTP, NCI, 2025):
# Tested on: 885512-296-R-J2-PDC complex spheroid viability
# Assay: Anticancer human tumor 885512-296-R-J2-PDC patient-derived breast carcinoma cell line growth inhibition [GQUAD]
# Details: for IC50: curve of first compound; for viability, T/C: stronger effect = lower value
# Procedure, shortened: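 Multi-cell-type spheroids of tumor cells with HUVEC and mesenchymal stem cells, treated with drug combinations. Concentrations descend in half-log steps from near clinical Cmax, or from 10 microM where Cmax is unknown; viability read-out.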
# [1] = second compound 0.0316 µM, first compound 0.0316 µM
# [2] = second compound 0.0316 µM, first compound 0.1 µM
# [3] = second compound 0.0316 µM, first compound 0.316 µM
# [4] = second compound 0.0316 µM, first compound 1 µM
# [5] = second compound 0.0316 µM, first compound 3.16 µM
# [6] = second compound 0.0316 µM, first compound 10 µM
# [7] = second compound 0.1 µM, first compound 0.0316 µM
# [8] = second compound 0.1 µM, first compound 0.1 µM
# [9] = second compound 0.1 µM, first compound 0.316 µM
# [10] = second compound 0.1 µM, first compound 1 µM
# [11] = second compound 0.1 µM, first compound 3.16 µM
# [12] = second compound 0.1 µM, first compound 10 µM
# [13] = second compound 0.316 µM, first compound 0.0316 µM
# [14] = second compound 0.316 µM, first compound 0.1 µM
# [15] = second compound 0.316 µM, first compound 0.316 µM
# [16] = second compound 0.316 µM, first compound 1 µM
# [17] = second compound 0.316 µM, first compound 3.16 µM
# [18] = second compound 0.316 µM, first compound 10 µM
# [19] = second compound 1 µM, first compound 0.0316 µM
# [20] = second compound 1 µM, first compound 0.1 µM
# [21] = second compound 1 µM, first compound 0.316 µM
# [22] = second compound 1 µM, first compound 1 µM
# [23] = second compound 1 µM, first compound 3.16 µM
# [24] = second compound 1 µM, first compound 10 µM
# [25] = second compound 3.16 µM, first compound 0.0316 µM
# [26] = second compound 3.16 µM, first compound 0.1 µM
# [27] = second compound 3.16 µM, first compound 0.316 µM
# [28] = second compound 3.16 µM, first compound 1 µM
# [29] = second compound 3.16 µM, first compound 3.16 µM
# [30] = second compound 3.16 µM, first compound 10 µM
# [31] = second compound 10 µM, first compound 0.0316 µM
# [32] = second compound 10 µM, first compound 0.1 µM
# [33] = second compound 10 µM, first compound 0.316 µM
# [34] = second compound 10 µM, first compound 1 µM
# [35] = second compound 10 µM, first compound 3.16 µM
# [36] = second compound 10 µM, first compound 10 µM
# 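Also: spheroids exposed to the compounds for one week.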
# 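For viability, T/C in this document: percent of tumor spheroid viability relative to DMSO vehicle control wells.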
compound,measurement,setting,value
CC(C)(O)C1CCC(Nc2ccc3ncc(-c4cccc(C(F)(F)F)c4)n3n2)CC1 (stereo unspecified) + Cc1[nH]c2ccc(F)cc2c1-c1nc2c3cccnc3c3ncccc3c2[nH]1,IC50,second compound 0.0316 µM,> 10000 nM
same,IC50,second compound 0.1 µM,> 10000 nM
same,IC50,second compound 0.316 µM,> 10000 nM
same,IC50,second compound 1 µM,6910 nM
same,IC50,second compound 3.16 µM,< 31.6 nM
same,IC50,second compound 10 µM,< 31.6 nM
same,"viability, T/C",[1],102%
same,"viability, T/C",[2],92.3%
same,"viability, T/C",[3],92.1%
same,"viability, T/C",[4],95.3%
same,"viability, T/C",[5],99%
same,"viability, T/C",[6],81.1%
same,"viability, T/C",[7],106%
same,"viability, T/C",[8],101%
same,"viability, T/C",[9],92.8%
same,"viability, T/C",[10],76.1%
same,"viability, T/C",[11],84.9%
same,"viability, T/C",[12],86.9%
same,"viability, T/C",[13],101%
same,"viability, T/C",[14],89.6%
same,"viability, T/C",[15],83.1%
same,"viability, T/C",[16],92.5%
same,"viability, T/C",[17],81.8%
same,"viability, T/C",[18],63.6%
same,"viability, T/C",[19],69%
same,"viability, T/C",[20],70.7%
same,"viability, T/C",[21],73.6%
same,"viability, T/C",[22],69.9%
same,"viability, T/C",[23],58.6%
same,"viability, T/C",[24],45.3%
same,"viability, T/C",[25],9.24%
same,"viability, T/C",[26],12.2%
same,"viability, T/C",[27],10.3%
same,"viability, T/C",[28],10.4%
same,"viability, T/C",[29],12.7%
same,"viability, T/C",[30],2.78%
same,"viability, T/C",[31],1.94%
same,"viability, T/C",[32],1.3%
same,"viability, T/C",[33],2.71%
same,"viability, T/C",[34],3.75%
same,"viability, T/C",[35],4.01%
same,"viability, T/C",[36],1%
Nc1ccn(C2OC(CO)C(O)C2(F)F)c(=O)n1 (stereo unspecified) + Cc1cnc(CNC(=O)c2c(=O)c3ccc(N4CCCN(C)CC4)nc3n3c2sc2ccccc23)cn1,IC50,second compound 0.0316 µM,< 31.6 nM
same,IC50,second compound 0.1 µM,< 31.6 nM
same,IC50,second compound 0.316 µM,< 31.6 nM
same,IC50,second compound 1 µM,< 31.6 nM
same,IC50,second compound 3.16 µM,< 31.6 nM
same,IC50,second compound 10 µM,< 31.6 nM
same,"viability, T/C",[1],11.4%
same,"viability, T/C",[2],3.66%
same,"viability, T/C",[3],4.41%
same,"viability, T/C",[4],3.92%
same,"viability, T/C",[5],3.56%
same,"viability, T/C",[6],4.33%
same,"viability, T/C",[7],8.53%
same,"viability, T/C",[8],4.24%
same,"viability, T/C",[9],3.88%
same,"viability, T/C",[10],5.21%
same,"viability, T/C",[11],4.05%
same,"viability, T/C",[12],3.9%
same,"viability, T/C",[13],8.35%
same,"viability, T/C",[14],8.14%
same,"viability, T/C",[15],5.18%
same,"viability, T/C",[16],2.76%
same,"viability, T/C",[17],5.29%
same,"viability, T/C",[18],4.05%
same,"viability, T/C",[19],9.41%
same,"viability, T/C",[20],7.02%
same,"viability, T/C",[21],3.55%
same,"viability, T/C",[22],3.31%
same,"viability, T/C",[23],4.27%
same,"viability, T/C",[24],3.59%
same,"viability, T/C",[25],4.08%
same,"viability, T/C",[26],0.41%
same,"viability, T/C",[27],0.15%
same,"viability, T/C",[28],0.1%
same,"viability, T/C",[29],0.12%
same,"viability, T/C",[30],0.14%
same,"viability, T/C",[31],0.09%
same,"viability, T/C",[32],0.15%
same,"viability, T/C",[33],0.14%
same,"viability, T/C",[34],0.11%
same,"viability, T/C",[35],0.15%
same,"viability, T/C",[36],0.16%
CC(=O)O[C@H]1C(=O)[C@@]2(C)[C@H]([C@H](OC(=O)c3ccccc3)[C@]3(O)C[C@H](OC(=O)[C@H](O)[C@@H](NC(=O)c4ccccc4)c4ccccc4)C(C)=C1C3(C)C)[C@]1(OC(C)=O)CO[C@@H]1C[C@@H]2O + Cc1[nH]c2ccc(F)cc2c1-c1nc2c3cccnc3c3ncccc3c2[nH]1,IC50,second compound 0.0316 µM,148 nM
same,IC50,second compound 0.1 µM,176 nM
same,IC50,second compound 0.316 µM,240 nM
same,IC50,second compound 1 µM,117 nM
same,IC50,second compound 3.16 µM,< 31.6 nM
same,IC50,second compound 10 µM,< 31.6 nM
same,"viability, T/C",[1],100%
same,"viability, T/C",[2],67.2%
same,"viability, T/C",[3],16.9%
same,"viability, T/C",[4],3.76%
same,"viability, T/C",[5],1%
same,"viability, T/C",[6],0.76%
same,"viability, T/C",[7],90.5%
same,"viability, T/C",[8],77.2%
same,"viability, T/C",[9],21.5%
same,"viability, T/C",[10],5.55%
same,"viability, T/C",[11],0.13%
same,"viability, T/C",[12],0.12%
same,"viability, T/C",[13],78.4%
same,"viability, T/C",[14],70.6%
same,"viability, T/C",[15],43.7%
same,"viability, T/C",[16],5.11%
same,"viability, T/C",[17],0.81%
same,"viability, T/C",[18],0.08%
same,"viability, T/C",[19],52.8%
same,"viability, T/C",[20],58.1%
same,"viability, T/C",[21],16.4%
same,"viability, T/C",[22],1.87%
same,"viability, T/C",[23],0.21%
same,"viability, T/C",[24],0.41%
same,"viability, T/C",[25],3.83%
same,"viability, T/C",[26],6.17%
same,"viability, T/C",[27],8.48%
same,"viability, T/C",[28],0.24%
same,"viability, T/C",[29],0.53%
same,"viability, T/C",[30],0.46%
same,"viability, T/C",[31],1.53%
same,"viability, T/C",[32],1.57%
same,"viability, T/C",[33],4.36%
same,"viability, T/C",[34],0.21%
same,"viability, T/C",[35],0.84%
same,"viability, T/C",[36],1.07%
